Assay results as given in ChEMBL document CHEMBL1201862, “PubChem BioAssay data set” (2004).
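48-hour exposure; five concentrations; linearly interpolated endpoints. The concentration for 50% growth inhibition is given as GI50.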 Activity calls are given as the source filed them. Rule as the data show it: active = GI50 up to about 1.1 µM and inactive = higher.

What was measured:
Assay in all cases: inhibition of tumour cell growth, NCI panel, 48 h
A498 = test system: A498
A549 = test system: A549
ACHN = test system: ACHN
HOP-92 = test system: HOP-92
HT-29 = test system: HT-29
Hs-578T = test system: Hs-578T
K562 = test system: K562
MCF7 = test system: MCF7
MDA-N = test system: MDA-N
MOLT-4 = test system: MOLT-4
NCI-H460 = test system: NCI-H460
PC-3 = test system: PC-3
SF-295 = test system: SF-295
SF-539 = test system: SF-539
SK-MEL-28 = test system: SK-MEL-28
SK-MEL-2 = test system: SK-MEL-2
SNB-19 = test system: SNB-19
T47D = test system: T47D
U-251 = test system: U-251
UO-31 = test system: UO-31

| SMILES | GI50 (A498) | GI50 (A549) | GI50 (ACHN) | GI50 (HOP-92) | GI50 (HT-29) | GI50 (Hs-578T) | GI50 (K562) | GI50 (MCF7) | GI50 (MDA-N) | GI50 (MOLT-4) | GI50 (NCI-H460) | GI50 (PC-3) | GI50 (SF-295) | GI50 (SF-539) | GI50 (SK-MEL-28) | GI50 (SK-MEL-2) | GI50 (SNB-19) | GI50 (T47D) | GI50 (U-251) | GI50 (UO-31) |
| --- | --- | --- | --- | --- | --- | --- | --- | --- | --- | --- | --- | --- | --- | --- | --- | --- | --- | --- | --- | --- |
| COc1cc(C2CC(C)(O)Oc3cc4c(cc32)OCO4)cc(OC)c1OC (stereo not given) | 4.6 µM (inactive) | 2.49 µM (inactive) | 0.708 µM (active) | 2.56 µM (inactive) | 0.334 µM (active) | 0.263 µM (active) | 0.386 µM (active) | 0.321 µM (active) | 0.166 µM (active) | 0.451 µM (active) | 0.389 µM (active) | 0.274 µM (active) | 0.184 µM (active) | 0.195 µM (active) | 0.569 µM (active) | 1.04 µM (active) | 0.617 µM (active) | 0.296 µM (active) | 0.358 µM (active) | – |
| CC1(C)CC[C@]2(C)[C@@H](O)C[C@]3(C)C(=CC[C@@H]4[C@@]5(C)CC[C@H](O)C(C)(C)[C@@H]5CC[C@]43C)[C@@H]2C1 | 34.3 µM (inactive) | 31.7 µM (inactive) | 41.4 µM (inactive) | 16.2 µM (inactive) | 39.2 µM (inactive) | 24.4 µM (inactive) | > 100 µM (inactive) | 37.9 µM (inactive) | > 100 µM (inactive) | > 100 µM (inactive) | 41.2 µM (inactive) | 29 µM (inactive) | 29.4 µM (inactive) | – | > 100 µM (inactive) | 26.4 µM (inactive) | 61.5 µM (inactive) | 9.79 µM (inactive) | 28.7 µM (inactive) | 20.4 µM (inactive) |
| CCN(CC)CCN1C=CC(C)C(C(=O)O)C1C(N)=O (stereo not given) | > 100 µM (inactive) | > 100 µM (inactive) | > 100 µM (inactive) | > 100 µM (inactive) | > 100 µM (inactive) | > 100 µM (inactive) | > 100 µM (inactive) | > 100 µM (inactive) | > 100 µM (inactive) | > 100 µM (inactive) | > 100 µM (inactive) | > 100 µM (inactive) | > 100 µM (inactive) | – | > 100 µM (inactive) | > 100 µM (inactive) | > 100 µM (inactive) | > 100 µM (inactive) | > 100 µM (inactive) | > 100 µM (inactive) |
| C/C(=N\NC(=S)N1CCN(c2ccccn2)CC1)c1nccs1 | 1.88 µM (inactive) | 0.908 µM (active) | 0.355 µM (active) | 2.26 µM (inactive) | 0.335 µM (active) | 2.8 µM (inactive) | 0.01 µM (active) | 0.00665 µM (active) | 0.431 µM (active) | < 0.0225 µM (active) | 0.104 µM (active) | 0.0548 µM (active) | 0.822 µM (active) | 0.524 µM (active) | 0.792 µM (active) | 1.83 µM (inactive) | 1.58 µM (inactive) | 0.0391 µM (active) | 0.405 µM (active) | 0.516 µM (active) |
| CCc1nc(N)c2nc(-c3cccs3)oc2n1 | > 10 µM (inactive) | > 100 µM (inactive) | 36.4 µM (inactive) | > 100 µM (inactive) | > 100 µM (inactive) | 45.3 µM (inactive) | > 100 µM (inactive) | > 100 µM (inactive) | > 100 µM (inactive) | > 100 µM (inactive) | 24.3 µM (inactive) | > 100 µM (inactive) | > 100 µM (inactive) | > 100 µM (inactive) | > 100 µM (inactive) | > 100 µM (inactive) | 9.25 µM (inactive) | 79.8 µM (inactive) | > 100 µM (inactive) | 65.6 µM (inactive) |
| CC(C)(C)C(=O)Oc1ccc(/C=C/C(=O)c2ccc(OC(=O)C(C)(C)C)cc2)cc1 | 81.5 µM (inactive) | 67.6 µM (inactive) | > 100 µM (inactive) | > 100 µM (inactive) | 47.3 µM (inactive) | 18 µM (inactive) | 26.3 µM (inactive) | 46.5 µM (inactive) | 39.1 µM (inactive) | 24.4 µM (inactive) | > 100 µM (inactive) | > 100 µM (inactive) | 93.3 µM (inactive) | 33 µM (inactive) | 97.3 µM (inactive) | > 100 µM (inactive) | 45.2 µM (inactive) | 91.2 µM (inactive) | 40.2 µM (inactive) | – |
| C[C@H](CCC1=NCCN1)[C@H]1CC[C@H]2[C@@H]3CC[C@@H]4C[C@H](O)CC[C@]4(C)[C@H]3C[C@H](O)[C@]12C | 20.8 µM (inactive) | – | 16.9 µM (inactive) | 12.2 µM (inactive) | 10.5 µM (inactive) | 11.4 µM (inactive) | 5.38 µM (inactive) | 12.7 µM (inactive) | 14.6 µM (inactive) | 3.13 µM (inactive) | 13.9 µM (inactive) | 4.57 µM (inactive) | 15.6 µM (inactive) | 13.2 µM (inactive) | 18.6 µM (inactive) | 13.8 µM (inactive) | 8.71 µM (inactive) | 13.6 µM (inactive) | 8.11 µM (inactive) | 18.6 µM (inactive) |
| CC(C)=CCC/C(C)=C/CC/C(C)=C/CC/C(C=O)=C/CC/C(C)=C\CC/C(C)=C/CC/C(C)=C/CC/C(C)=C/CC1=CC(=O)C=CC1=O | > 100 µM (inactive) | > 100 µM (inactive) | > 100 µM (inactive) | > 100 µM (inactive) | – | 62.4 µM (inactive) | > 100 µM (inactive) | 0.365 µM (active) | > 100 µM (inactive) | 55.5 µM (inactive) | > 100 µM (inactive) | > 100 µM (inactive) | 91.4 µM (inactive) | – | > 100 µM (inactive) | 31.8 µM (inactive) | > 100 µM (inactive) | 10.5 µM (inactive) | 69.7 µM (inactive) | > 100 µM (inactive) |
| O=[N+]([O-])c1ccc(S[C@@H]2[C@H]3c4c(-c5ccccc5)[nH]c(-c5ccccc5)c4[C@@H]2C[C@H]3Cl)cc1 | 4.82 µM (inactive) | 2.74 µM (inactive) | 3.7 µM (inactive) | 0.895 µM (active) | 3.37 µM (inactive) | 5.08 µM (inactive) | – | 2.31 µM (inactive) | 2.89 µM (inactive) | – | 2.4 µM (inactive) | 3.8 µM (inactive) | 3.71 µM (inactive) | 6.75 µM (inactive) | 18.1 µM (inactive) | 11.2 µM (inactive) | 4.6 µM (inactive) | 1.93 µM (inactive) | 4.17 µM (inactive) | 1.62 µM (inactive) |
| N#CC1=C(N)N(/N=C/c2ccco2)C(c2ccco2)C1(C#N)C#N (stereo not given) | 16 µM (inactive) | 19.6 µM (inactive) | 15.6 µM (inactive) | 16.6 µM (inactive) | 14.2 µM (inactive) | 22.2 µM (inactive) | 5.7 µM (inactive) | 20.5 µM (inactive) | 18.4 µM (inactive) | 11.9 µM (inactive) | – | 23 µM (inactive) | 28.4 µM (inactive) | 22.1 µM (inactive) | – | 24.1 µM (inactive) | 20.4 µM (inactive) | 12.4 µM (inactive) | 18.9 µM (inactive) | 18.6 µM (inactive) |
| O=C(c1ccco1)N(C(=S)OC12CC3CC(CC(C3)C1)C2)c1ccccc1 | 23.3 µM (inactive) | 32.2 µM (inactive) | 27.1 µM (inactive) | 19.5 µM (inactive) | 33.5 µM (inactive) | 32.6 µM (inactive) | 28.6 µM (inactive) | 26.2 µM (inactive) | 29.4 µM (inactive) | 24.4 µM (inactive) | 30.8 µM (inactive) | 20.5 µM (inactive) | 27.7 µM (inactive) | 20.2 µM (inactive) | 37.9 µM (inactive) | 21.2 µM (inactive) | 34.7 µM (inactive) | 47.2 µM (inactive) | 23.3 µM (inactive) | 24.9 µM (inactive) |
| N=C(CCl)NC1CN2CCC1CC2 (stereo not given) | > 100 µM (inactive) | > 100 µM (inactive) | 87.7 µM (inactive) | > 100 µM (inactive) | 48.3 µM (inactive) | > 100 µM (inactive) | > 100 µM (inactive) | 42.3 µM (inactive) | > 100 µM (inactive) | 39.7 µM (inactive) | > 100 µM (inactive) | > 100 µM (inactive) | > 100 µM (inactive) | 60.5 µM (inactive) | > 100 µM (inactive) | > 100 µM (inactive) | > 100 µM (inactive) | 56.1 µM (inactive) | 49.1 µM (inactive) | – |
| CCCCCc1cc2cc3c(c(O)c2c(=O)[nH]1)C1(CCC3)C(=O)c2c(O)c3c(c(O)c2C1=O)C(=O)C(OC)=CC3=O (stereo not given) | 2.18 µM (inactive) | 1 µM (active) | 0.552 µM (active) | 0.433 µM (active) | 0.748 µM (active) | 0.743 µM (active) | 0.42 µM (active) | 0.317 µM (active) | 1.41 µM (inactive) | 0.582 µM (active) | 0.757 µM (active) | 1.1 µM (active) | 1.91 µM (inactive) | – | 1.29 µM (inactive) | 1.24 µM (inactive) | 1.49 µM (inactive) | 0.0959 µM (active) | 0.621 µM (active) | 0.579 µM (active) |
| CC(C)C[C@H](NC(=O)[C@H](Cc1cccc2ccccc12)NS(=O)(=O)c1cccc2cccnc12)B(O)O | < 0.0147 µM (active) | 0.0435 µM (active) | 0.0327 µM (active) | 0.00726 µM (active) | < 0.0165 µM (active) | < 0.0199 µM (active) | < 0.0196 µM (active) | < 0.0151 µM (active) | < 0.01 µM (active) | < 0.01 µM (active) | 0.0893 µM (active) | < 0.0272 µM (active) | – | < 0.01 µM (active) | – | < 0.0158 µM (active) | < 0.0225 µM (active) | < 0.01 µM (active) | 0.0264 µM (active) | 0.279 µM (active) |
